According to US9650339B2, “Inhibitors of histone demethylases” (Gilead Sciences, Inc., priority 2013, dated 2017):

How the values were obtained:
Format in all cases: biochemical
[1] = molecular target: T1, KDM6B (JMJD3) (Homo sapiens, UniProt O15054); experiment: Histone lysine demethylase AlphaLISA assay, KDM6B; conditions: read-out: KDM6B HDME Inhibition IC50
T1 construct: 1043-end; purchased BPS; host or cells: Bac (baculovirus system)
Protocol: (§1) Assays are performed analogously to the protocol described by PerkinElmer (Roy et al. PerkinElmer Technical Note: AlphaLISA #12, April 2011)
(§2) Enzymes are dissolved in enzyme buffer and incubated for 10 min before being added to 3% DMSO solutions of compounds in enzyme buffer. Incubated for another 10 minutes, before substrate solution is added and the reaction mixture is incubated at room temperature. 10 μL acceptor beads, suspended in Epigenetic Buffer (Perkin Elmer AL008) from stock, are added and the suspension is incubated in the dark at room temperature, before a suspension of streptavidin donor beads (Perkin Elmer 6760002) in Epigenetic Buffer is added. After incubation at room temperature in the dark the plates are read. […]
BK27M3: Biotin-ATKAAR(Kme3)SAPATGGVKKPHRY-NH2? (Caslo, Denmark) […]
(§3) Substrate Solution: Substrate, 25 μM L-Asc, and 10 μM α-KG in Buffer A.

[2] = molecular target: KDM6A (UTX) (Homo sapiens, UniProt O15550); experiment: Histone lysine demethylase AlphaLISA assay, KDM6A; conditions: read-out: KDM6A HDME Inhibition IC50
KDM6A (UTX), sequence (O15550 919-1401): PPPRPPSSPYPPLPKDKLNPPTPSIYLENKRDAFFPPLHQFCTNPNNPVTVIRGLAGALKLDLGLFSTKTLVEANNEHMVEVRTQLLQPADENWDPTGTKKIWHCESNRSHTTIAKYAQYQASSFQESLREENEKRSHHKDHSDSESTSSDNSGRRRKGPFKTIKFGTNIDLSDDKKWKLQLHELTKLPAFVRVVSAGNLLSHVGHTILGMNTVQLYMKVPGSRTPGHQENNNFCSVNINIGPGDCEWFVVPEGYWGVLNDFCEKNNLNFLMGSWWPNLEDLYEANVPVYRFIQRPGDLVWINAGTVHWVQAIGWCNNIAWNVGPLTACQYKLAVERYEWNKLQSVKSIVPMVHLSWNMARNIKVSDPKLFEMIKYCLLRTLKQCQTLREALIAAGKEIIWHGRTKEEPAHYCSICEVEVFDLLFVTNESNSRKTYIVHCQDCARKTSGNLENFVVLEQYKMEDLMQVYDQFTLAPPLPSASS
How it was run: (§4)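 Steps: enzyme equilibrated 10 min in buffer; compounds in 3% DMSO solution added, 10 min; substrate mix added (peptide, 25 μM L-Asc, 10 μM α-KG), room temperature; acceptor beads, then streptavidin donor beads, dark incubations; plate read.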

[3] = molecular target: T2, KDM2B (FBXL10) (Homo sapiens, UniProt Q8NHM5); experiment: Histone lysine demethylase AlphaLISA assay, KDM2B; conditions: read-out: KDM2B HDME Inhibition IC50
T2 sequence (Q8NHM5 1-650): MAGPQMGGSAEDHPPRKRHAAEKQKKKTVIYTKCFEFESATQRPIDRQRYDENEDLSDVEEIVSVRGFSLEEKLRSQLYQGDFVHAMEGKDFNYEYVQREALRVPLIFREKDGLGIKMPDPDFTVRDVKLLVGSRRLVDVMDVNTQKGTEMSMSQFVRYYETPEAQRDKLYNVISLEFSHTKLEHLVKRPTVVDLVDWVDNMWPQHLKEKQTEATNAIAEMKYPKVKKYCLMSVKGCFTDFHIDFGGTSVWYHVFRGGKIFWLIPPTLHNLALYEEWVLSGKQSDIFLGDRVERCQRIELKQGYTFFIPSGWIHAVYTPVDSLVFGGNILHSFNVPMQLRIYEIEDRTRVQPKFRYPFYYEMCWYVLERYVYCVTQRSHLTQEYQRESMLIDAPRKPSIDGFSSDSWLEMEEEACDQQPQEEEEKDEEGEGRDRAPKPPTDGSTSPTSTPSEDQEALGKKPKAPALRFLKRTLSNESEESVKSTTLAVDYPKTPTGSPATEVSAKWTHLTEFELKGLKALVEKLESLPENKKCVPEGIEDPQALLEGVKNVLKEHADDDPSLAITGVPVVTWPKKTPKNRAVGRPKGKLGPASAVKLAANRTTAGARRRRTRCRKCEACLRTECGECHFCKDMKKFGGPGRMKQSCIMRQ
How it was run: as §4

[4] = molecular target: T3, KDM5B (PLU-1) (Homo sapiens, UniProt Q9UGL1); experiment: Histone lysine demethylase AlphaLISA assay, KDM5B; conditions: read-out: KDM5B HDME Inhibition IC50
T3 sequence (Q9UGL1 1-809): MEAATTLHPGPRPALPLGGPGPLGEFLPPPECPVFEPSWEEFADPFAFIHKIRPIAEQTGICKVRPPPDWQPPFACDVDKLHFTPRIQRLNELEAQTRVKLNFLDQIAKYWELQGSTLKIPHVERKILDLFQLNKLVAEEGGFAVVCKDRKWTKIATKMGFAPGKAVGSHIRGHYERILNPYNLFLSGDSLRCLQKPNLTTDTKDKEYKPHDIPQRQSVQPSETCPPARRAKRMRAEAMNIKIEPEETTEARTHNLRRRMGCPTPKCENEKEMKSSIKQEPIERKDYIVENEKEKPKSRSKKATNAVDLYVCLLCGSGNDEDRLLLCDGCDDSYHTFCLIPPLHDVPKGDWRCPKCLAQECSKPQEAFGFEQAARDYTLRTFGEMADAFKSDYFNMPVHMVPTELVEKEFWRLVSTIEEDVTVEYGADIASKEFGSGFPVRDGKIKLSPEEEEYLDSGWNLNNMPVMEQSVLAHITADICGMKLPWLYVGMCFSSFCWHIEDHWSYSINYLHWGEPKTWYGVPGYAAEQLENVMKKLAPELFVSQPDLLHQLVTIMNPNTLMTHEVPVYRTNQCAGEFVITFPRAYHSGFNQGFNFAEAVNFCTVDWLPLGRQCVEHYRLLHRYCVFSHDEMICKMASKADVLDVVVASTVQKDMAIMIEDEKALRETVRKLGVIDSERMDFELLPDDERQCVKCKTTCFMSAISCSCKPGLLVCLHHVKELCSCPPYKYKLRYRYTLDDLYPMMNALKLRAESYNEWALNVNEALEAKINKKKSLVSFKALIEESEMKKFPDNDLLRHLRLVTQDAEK
How it was run: as §4

[5] = molecular target: T4, KDM5C (JARID1C) (Homo sapiens, UniProt P41229); experiment: Histone lysine demethylase AlphaLISA assay, KDM5C; conditions: read-out: KDM5C HDME Inhibition IC50
T4 construct: 2-1560; purchased BPS; host or cells: Bac (baculovirus system)
T4 sequence (P41229 2-1560): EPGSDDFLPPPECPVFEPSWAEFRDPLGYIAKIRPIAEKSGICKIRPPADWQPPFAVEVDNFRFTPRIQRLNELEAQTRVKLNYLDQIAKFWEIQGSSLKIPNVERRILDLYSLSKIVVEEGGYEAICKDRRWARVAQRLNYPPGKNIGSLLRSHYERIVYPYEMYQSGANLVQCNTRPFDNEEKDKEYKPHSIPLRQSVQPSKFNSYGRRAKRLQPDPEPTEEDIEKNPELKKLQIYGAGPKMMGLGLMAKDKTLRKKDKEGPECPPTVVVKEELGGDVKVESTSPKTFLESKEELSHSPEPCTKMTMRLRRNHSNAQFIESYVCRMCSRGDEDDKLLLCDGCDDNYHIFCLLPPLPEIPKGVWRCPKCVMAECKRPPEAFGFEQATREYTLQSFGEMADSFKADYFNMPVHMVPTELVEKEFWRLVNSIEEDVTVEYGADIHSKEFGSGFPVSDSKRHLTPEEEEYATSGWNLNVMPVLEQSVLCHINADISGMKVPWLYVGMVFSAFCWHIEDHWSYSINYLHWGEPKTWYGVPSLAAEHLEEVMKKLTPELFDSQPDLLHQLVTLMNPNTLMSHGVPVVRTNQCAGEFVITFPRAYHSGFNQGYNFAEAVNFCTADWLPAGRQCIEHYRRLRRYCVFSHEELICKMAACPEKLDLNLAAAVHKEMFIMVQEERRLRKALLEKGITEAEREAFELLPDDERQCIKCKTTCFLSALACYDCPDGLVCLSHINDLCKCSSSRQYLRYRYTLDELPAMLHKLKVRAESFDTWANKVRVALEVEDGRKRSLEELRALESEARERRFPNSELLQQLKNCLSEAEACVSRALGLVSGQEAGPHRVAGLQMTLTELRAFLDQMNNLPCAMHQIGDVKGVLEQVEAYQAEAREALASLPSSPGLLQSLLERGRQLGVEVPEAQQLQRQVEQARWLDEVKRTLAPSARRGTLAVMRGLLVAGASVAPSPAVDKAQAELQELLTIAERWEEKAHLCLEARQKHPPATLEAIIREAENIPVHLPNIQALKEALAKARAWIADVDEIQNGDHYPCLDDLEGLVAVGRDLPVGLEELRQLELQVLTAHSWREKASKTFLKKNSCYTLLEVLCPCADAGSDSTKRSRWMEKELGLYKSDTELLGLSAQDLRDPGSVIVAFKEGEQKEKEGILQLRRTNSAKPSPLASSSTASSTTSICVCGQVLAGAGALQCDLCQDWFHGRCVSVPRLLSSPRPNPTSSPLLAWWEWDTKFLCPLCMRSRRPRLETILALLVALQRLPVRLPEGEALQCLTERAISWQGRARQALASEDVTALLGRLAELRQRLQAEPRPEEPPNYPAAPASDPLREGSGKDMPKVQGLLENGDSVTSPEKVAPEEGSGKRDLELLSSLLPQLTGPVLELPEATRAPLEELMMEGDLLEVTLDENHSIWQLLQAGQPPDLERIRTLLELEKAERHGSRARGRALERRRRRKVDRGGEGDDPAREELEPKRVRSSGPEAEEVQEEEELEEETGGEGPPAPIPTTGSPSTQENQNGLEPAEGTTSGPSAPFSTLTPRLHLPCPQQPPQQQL
Protocol: as §1, §2
H3K4M3B: H-ART(Kme3)QTARKSTGGKAPRKQLA-NH-Biotin (Caslo, Denmark) […]
as §3

[6] = molecular target: T5, KDM4A (JMJD2A) (Homo sapiens, UniProt O75164); experiment: Histone lysine demethylase AlphaLISA assay, KDM4A; conditions: read-out: KDM4A HDME Inhibition IC50
T5 construct: 1-350; purchased BPS Bioscience, US; host or cells: E. coli
T5 sequence (O75164 1-350): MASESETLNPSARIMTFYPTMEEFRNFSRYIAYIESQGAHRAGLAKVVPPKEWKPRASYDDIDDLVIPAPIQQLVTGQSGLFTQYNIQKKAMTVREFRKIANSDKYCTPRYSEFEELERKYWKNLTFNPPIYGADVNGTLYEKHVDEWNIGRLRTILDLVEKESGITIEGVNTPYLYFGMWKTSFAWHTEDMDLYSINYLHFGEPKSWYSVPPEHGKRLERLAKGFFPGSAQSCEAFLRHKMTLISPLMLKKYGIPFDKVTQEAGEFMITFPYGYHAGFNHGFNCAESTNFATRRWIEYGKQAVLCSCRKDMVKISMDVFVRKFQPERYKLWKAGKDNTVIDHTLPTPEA
Protocol: as §1
Enzymes are dissolved in enzyme buffer and incubated for 10 min before being added to 3% DMSO solutions of compounds in enzyme buffer. Incubated for another 10 minutes, before substrate solution is added and the reaction mixture is incubated at room temperature. 10 μL acceptor beads, suspended in Epigenetic Buffer (Perkin Elmer AL008) from stock, are added and the suspension is incubated in the dark at room temperature, before a suspension of streptavidin donor beads (Perkin Elmer 6760002) in Epigenetic Buffer is added. After incubation at room temperature in the dark the plates are read.
BK9M3: Biotin-ARTKQTAR(KMe3)STGGKAPRKQ-NH2 (Caslo, Denmark) […]
as §3

T1 sequence (O15054 1043-1682 isoform O15054-1 limits assumed): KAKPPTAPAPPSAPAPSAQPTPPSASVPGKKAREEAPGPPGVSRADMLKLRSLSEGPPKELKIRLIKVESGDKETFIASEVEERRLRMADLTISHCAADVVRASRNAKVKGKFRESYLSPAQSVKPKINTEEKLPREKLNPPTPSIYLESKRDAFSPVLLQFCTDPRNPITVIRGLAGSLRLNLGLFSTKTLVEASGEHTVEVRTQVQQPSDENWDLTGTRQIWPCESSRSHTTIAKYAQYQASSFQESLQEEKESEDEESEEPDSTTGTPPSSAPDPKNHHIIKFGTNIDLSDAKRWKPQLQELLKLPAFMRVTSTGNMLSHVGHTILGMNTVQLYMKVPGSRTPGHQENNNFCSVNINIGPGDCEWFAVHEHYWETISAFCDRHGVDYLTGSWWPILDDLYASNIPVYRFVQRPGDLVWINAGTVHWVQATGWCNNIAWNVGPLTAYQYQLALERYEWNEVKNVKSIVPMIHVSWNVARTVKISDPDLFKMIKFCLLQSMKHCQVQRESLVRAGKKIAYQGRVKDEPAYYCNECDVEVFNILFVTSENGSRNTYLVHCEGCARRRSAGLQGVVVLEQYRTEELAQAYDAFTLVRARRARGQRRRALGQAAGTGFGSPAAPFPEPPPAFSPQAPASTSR

| IC50 [1] [nM] | IC50 [2] [nM] | IC50 [3] [nM] | IC50 [4] [nM] | IC50 [5] [nM] | IC50 [6] [nM] | SMILES |
| --- | --- | --- | --- | --- | --- | --- |
| > 2500 | > 2500 | > 2500 | < 250 | < 250 | > 2500 | CNCc1ccnc(CNCCCN(C)Cc2ccccc2)c1 [Compound 17, benzyl(methyl){3-[({4-[(methylamino)methyl]-pyridin-2-yl)methyl)-amino]propyl}-amine] |
| > 2500 | > 2500 | > 2500 | > 2500 | > 2500 | > 2500 | CN(C)CCNCc1cc(CNC(C#N)C2CC2)ccn1 (stereo not drawn) [Compound 21, 2-cyclopropyl-2-({[2-({[2-(dimethylamino)ethyl]-amino}methyl)pyridin-4-yl]methyl}amino)-acetonitrile] |
| > 2500 | > 2500 | > 2500 | 250 to 2500 | < 250 | > 2500 | CC(C#N)NCc1ccnc(CNCCCN(C)C)c1 (stereo not drawn) [Compound 22, 2-({[2-({[3-(dimethylamino)propyl]-amino}methyl)pyridin-4-yl]methyl}amino)-propanenitrile] |
| > 2500 | > 2500 | > 2500 | 250 to 2500 | < 250 | > 2500 | N#CCNCc1ccnc(CNCCCCN(Cc2ccccc2)C2CC2)c1 [Compound 23, 2-[({2-[({4-[benzyl(cyclopropyl)-amino]butyl}amino)-methyl]pyridin-4-yl}methyl)amino]-acetonitrile] |
| > 2500 | > 2500 | > 2500 | < 250 | < 250 | 250 to 2500 | CNC(C#N)c1ccnc(CNCCCN(C)C)c1 (stereo not drawn) [Compound 24, 2-[2-({[3-(dimethylamino)propyl]-amino}methyl)pyridin-4-yl]-2-(methylamino)-acetonitrile] |
| > 2500 | > 2500 | > 2500 | 250 to 2500 | 250 to 2500 | > 2500 | CCN(CCN(C)C)C(=O)CNCc1cc(CNC(=O)C(F)(F)F)ccn1 [Compound 25, N-[(2-{[({[2-(dimethylamino)ethyl]-(ethyl)carbamoyl}-methyl)amino]methyl}-pyrtdin-4-yl)methyl]-2,2,2-trifluoroacetamide] |
| > 2500 | > 2500 | 250 to 2500 | < 250 | < 250 | < 250 | CN(C)C(=O)CNCc1cc(/C=N\C2CC2)ccn1 [Compound 33] |
| > 2500 | > 2500 | > 2500 | < 250 | < 250 | > 2500 | CN(C)C(=O)CNCc1cc(/C=N/CCCc2ccccc2)ccn1 [Compound 34, N,N-dimethyl-2-[({4-[[(3-phenylpropyl)imino]-methyl]pyridin-2-yl}methyl)amino]-acetamide] |
| > 2500 | > 2500 | 250 to 2500 | 250 to 2500 | < 250 | < 250 | CC1CC1/N=C/c1ccnc(CNCC(=O)N(C)C)c1 (stereo not drawn) [Compound 35, N,N-dimethyl-2-[({4-[N-(2-methylcyclopropyl)-carboximidoyl]pyridin-2-yl}methyl)amino]-acetamide] |
| > 2500 | > 2500 | > 2500 | < 250 | < 250 | 250 to 2500 | CN(C)C(=O)CNCc1cc(/C=N/CCC2CCCCC2)ccn1 [Compound 36, 2-[({4-[[(2-cyclohexylethyl)imino]-methyl]pyridin-2-yl}methyl)amino]-N,N-dimethylacetamide] |
| > 2500 | > 2500 | > 2500 | < 250 | < 250 | > 2500 | CN(C)CCCNCc1cc(/C=N/CCN(C)C)ccn1 [Compound 38, ({4-[{[2-(dimethylamino)ethyl]-imino}methyl]pyridin-2-yl}methyl)[3-(dimethylamino)-propyl]amine] |
